In patent US20220370416A1, “COMPOUNDS AND METHODS FOR TARGETED DEGRADATION OF KRAS” (Arvinas Operations, Inc., priority 2020, published 2022):

Target: HiBit-KRAS^G12C (Homo sapiens, UniProt P01116, G12C)
Test: HiBit degradation assay in SW1573 HiBit-KRas^G12C cells
Assay type: cell-based
Design: expressed in transfected cells; host or cells: SW1573 (clone E6), modified pcDNA3.1 vector, TK promoter
Settings: 0.1% DMSO, 24 hours; for DC50: SW1573 HiBit-KRas^G12C, read-out: KRas^G12C-HIBit (SW1573; 0.1% DMSO) DC50*; for Dmax: SW1573, SW1573 HiBit-KRas^G12C, read-out: KRas^G12C-HiBit (SW1573; 0.1% DMSO) Dmax**
Procedure: Reagents. SW1573 (CRL-2170) and MiaPaCa-2 (CRL-1420) cells were purchased from ATCC. Both cell lines are […] for the G12C mutation in KRAS. SW1573 cells were cultured in DMEM+F12+Glutamax (+Sodium Bicarbonate, +sodium pyruvate, Thermofisher scientific, #10565) supplemented with 10% FBS (Thermofisher scientific, #2060357) and 1% Antibiotic-Antimycotic (Thermofisher scientific, #15240096). MiaPaCa-2 cells were cultured in DMEM+Glutamax media (Thermofisher scientific, #10566) supplemented with 10% FBS (Thermofisher scientific, #2060357) and 1% Antibiotic-Antimycotic (Thermofisher scientific, #15240096). For degradation assays, 384 well plates were purchased from Corning (Corning® CellBIND® 384-well Flat Clear Bottom Black Polystyrene Microplates, Low Flange, #3770). Gambogic acid was purchased from Selleckchem (#S2448). Alamar blue was purchased from Thermofisher scientific (A50101) and used according to manufacturer instructions. The Nano-Glo® HiBit Lytic Detection System and Nano-Glo® HiBit Blotting System were purchased from Promega (#N3050 and #N2410) and used according to manufacturer instructions.
To create the SW1573 HiBit-KRAS^G12C cell line, the nucleotide sequence encoding the 11 amino acid HiBit tag from Promega (Schwinn, M. K. et al. (2018) CRISPR-mediated tagging of endogenous proteins with a luminescent peptide. ACS Chem. Biol. 13(2), 467-474) was appended to the N-terminus of the KRAS^G12C coding sequence. This synthesized DNA was cloned into a modified pcDNA3.1 vector under the control of the thymidine kinase (TK) promoter. This HiBit-KRAS^G12C expressing plasmid was transfected into parental SW1573 cells and colonies were selected using 400 μg/mL zeocin. The resulting clonal lines were screened for expression of HiBit-KRAS^G12C protein using Nano-Glo® HiBit Blotting System. A luminescent band of the correct size for HiBit-KRAS^G12C was detected in several clones. Clone E6 was selected for further studies.
Either SW1573 HiBit-KRas^G12C or MiaPaCa-2 HiBit-KRas^G12C cells were plated at 9000 cells/well in a 384 well plate (Corning #3770). Exemplary heterobifunctional molecules and positive controls were diluted in the appropriate cell media and applied to the plated cells resulting in a final concentration titration of 10 μM to 20 nM in either 0.1% or 0.5% dimethyl sulfoxide (DMSO). Gambogic acid was used as a positive control for cytotoxicity and titrated from 10 μM to 78 nM. All assays were performed in triplicate. Cells were treated with compounds for 24 hours at 37° C. in an incubator containing 5% CO2. Following treatment, alamar blue was used to determine if any compounds led to a loss in cell viability after 24 hours. The 10× alamar blue reagent was added to a final concentration of 1× as recommended by the manufacturer and cells were returned to the incubator for 4 hours. Plates were then allowed to equilibrate to room temperature and fluorescence was measured using a Perkin-Elmer EnVision. After completion of the fluorescence read, the liquid from each well was removed and the cells were washed with PBS. The Nano-Glo® HiBiT detection reagent was prepared according to the manufacturer's instructions and added to each well after the PBS wash was removed. Following incubation at room temperature for 45 minutes, the luminescence was read using the ultra-sensitive luminescence aperture on the Envision instrument.
Fluorescence values from the alamar blue treatment were normalized to the DMSO only control for each compound titration. We hypothesized that compounds that led to a ≥50% loss in cell viability of the KRAS-independent SW1573 HiBit-KRas^G12C cells were likely generally cytotoxic and loss of HiBit-KRAS^G12C signal from these compounds may be due to lower cell number and not specific KRAS^G12C degradation. These points were therefore excluded from the data analysis for degradation. […]

Sequence of HiBit-KRAS^G12C (P01116 1-186 isoform P01116-2 G12C limits assumed): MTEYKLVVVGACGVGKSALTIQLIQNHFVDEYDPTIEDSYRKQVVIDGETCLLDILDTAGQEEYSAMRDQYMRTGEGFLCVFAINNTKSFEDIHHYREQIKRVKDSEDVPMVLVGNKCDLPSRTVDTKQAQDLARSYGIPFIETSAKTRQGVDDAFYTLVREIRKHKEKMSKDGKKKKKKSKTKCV

SMILES | DC50 [nM] | Dmax [%]
C=CC(=O)N1CCN(c2nc(O[C@H](C)CN3CCC(OCCOCCOCCOc4cc(-c5scnc5C)ccc4CNC(=O)[C@@H]4C[C@@H](O)CN4C(=O)[C@@H](c4cc(C)no4)C(C)C)CC3)nc3c(F)c(-c4cc(O)cc5ccccc45)c(Cl)cc23)CC1 [Compound 70, (2S,4R)-N-{[2-(2-{2-[2-({1-[(2R)-2-{[6-chloro-8-fluoro-7-(3-hydroxynaphthalen-1-yl)-4-[4-(prop-2-enoyl)piperazin-1-yl]quinazolin-2-yl]oxy}propyl]piperidin-4-yl}oxy)ethoxy]ethoxy}ethoxy)-4-(4-methyl-1,3-thiazol-5-yl)phenyl]methyl}-4-hydroxy-1-[(2R)-3-methyl-2-(3-methyl-1,2-oxazol-5-yl)butanoyl]pyrrolidine-2-carboxamide] | > 1000 | –
C=CC(=O)N1CCN(c2nc(O[C@H](C)CN3CCC(OCCOCCOc4cc(-c5scnc5C)ccc4CNC(=O)[C@@H]4C[C@@H](O)CN4C(=O)[C@@H](c4cc(C)no4)C(C)C)CC3)nc3c(F)c(-c4cc(O)cc5ccccc45)c(Cl)cc23)CC1 [Compound 72, (2S,4R)-N-[(2-{2-[2-({1-[(2R)-2-{[6-chloro-8-fluoro-7-(3-hydroxynaphthalen-1-yl)-4-[4-(prop-2-enoyl)piperazin-1-yl]quinazolin-2-yl]oxy}propyl]piperidin-4-yl}oxy)ethoxy]ethoxy}-4-(4-methyl-1,3-thiazol-5-yl)phenyl)methyl]-4-hydroxy-1-[(2R)-3-methyl-2-(3-methyl-1,2-oxazol-5-yl)butanoyl]pyrrolidine-2-carboxamide] | > 1000 | –
C=CC(=O)N1CCN(c2nc(OC[C@@H]3C[C@@H](OCCOCCOCCOCCOCCOCCOCCOCCOCCOCCOCC(=O)N[C@H](C(=O)N4C[C@H](O)C[C@H]4C(=O)N[C@@H](C)c4ccc(-c5scnc5C)cc4)C(C)(C)C)CN3C)nc3c2CCN(c2cccc4ccccc24)C3)C[C@@H]1CC#N [Compound 73, (2S,4R)-1-[(2S)-2-(32-{[(3R,5S)-5-[({4-[(3S)-3-(cyanomethyl)-4-(prop-2-enoyl)piperazin-1-yl]-7-(naphthalen-1-yl)-5H,6H,7H,8H-pyrido[3,4-d]pyrimidin-2-yl}oxy)methyl]-1-methylpyrrolidin-3-yl]oxy}-3,6,9,12,15,18,21,24,27,30-decaoxadotriacontanamido)-3,3-dimethylbutanoyl]-4-hydroxy-N-[(1S)-1-[4-(4-methyl-1,3-thiazol-5-yl)phenyl]ethyl]pyrrolidine-2-carboxamide] | > 1000 | –
C=CC(=O)N1CCN(c2nc(OC[C@@H]3C[C@@H](OCCOCCOCCOCCOCCOCCOCCOCCOCC(=O)N[C@H](C(=O)N4C[C@H](O)C[C@H]4C(=O)N[C@@H](C)c4ccc(-c5scnc5C)cc4)C(C)(C)C)CN3C)nc3c2CCN(c2cccc4ccccc24)C3)C[C@@H]1CC#N [Compound 74, (2S,4R)-1-[(2S)-2-(26-{[(3R,5S)-5-[({4-[(3S)-3-(cyanomethyl)-4-(prop-2-enoyl)piperazin-1-yl]-7-(naphthalen-1-yl)-5H,6H,7H,8H-pyrido[3,4-d]pyrimidin-2-yl}oxy)methyl]-1-methylpyrrolidin-3-yl]oxy}-3,6,9,12,15,18,21,24-octaoxahexacosanamido)-3,3-dimethylbutanoyl]-4-hydroxy-N-[(1S)-1-[4-(4-methyl-1,3-thiazol-5-yl)phenyl]ethyl]pyrrolidine-2-carboxamide] | > 1000 | –
C=CC(=O)N1CCN(c2nc(O[C@H](C)CN3CCC(OCCOCCOCCOCCOc4cc(-c5scnc5C)ccc4CNC(=O)[C@@H]4C[C@@H](O)CN4C(=O)[C@H](c4cc(C)no4)C(C)C)CC3)nc3c(F)c(-c4cc(O)cc5ccccc45)c(Cl)cc23)CC1 [Compound 75, (2S,4R)-N-({2-[2-(2-{2-[2-({1-[(2R)-2-{[6-chloro-8-fluoro-7-(3-hydroxynaphthalen-1-yl)-4-[4-(prop-2-enoyl)piperazin-1-yl]quinazolin-2-yl]oxy}propyl]piperidin-4-yl}oxy)ethoxy]ethoxy}ethoxy)ethoxy]-4-(4-methyl-1,3-thiazol-5-yl)phenyl}methyl)-4-hydroxy-1-[(2S)-3-methyl-2-(3-methyl-1,2-oxazol-5-yl)butanoyl]pyrrolidine-2-carboxamide] | > 1000 | < 35
C=CC(=O)N1CCN(c2nc(O[C@H](C)CN3CCC(OCCOCCOCCOCCOc4cc(-c5scnc5C)ccc4CNC(=O)[C@@H]4C[C@@H](O)CN4C(=O)[C@@H](c4cc(C)no4)C(C)C)CC3)nc3c(F)c(-c4cc(O)cc5ccccc45)c(Cl)cc23)CC1 [Compound 76, (2S,4R)-N-({2-[2-(2-{2-[2-({1-[(2R)-2-{[6-chloro-8-fluoro-7-(3-hydroxynaphthalen-1-yl)-4-[4-(prop-2-enoyl)piperazin-1-yl]quinazolin-2-yl]oxy}propyl]piperidin-4-yl}oxy)ethoxy]ethoxy}ethoxy)ethoxy]-4-(4-methyl-1,3-thiazol-5-yl)phenyl}methyl)-4-hydroxy-1-[(2R)-3-methyl-2-(3-methyl-1,2-oxazol-5-yl)butanoyl]pyrrolidine-2-carboxamide] | > 1000 | –

More lines, now with the values ahead:

DC50 [nM] | Dmax [%] | SMILES
> 1000 | – | C=CC(=O)N1CCN(c2nc(O[C@H](C)CN3CCC(CCCN4CCN(CC(=O)N[C@H](C(=O)N5C[C@H](O)C[C@H]5C(=O)N[C@@H](C)c5ccc(-c6scnc6C)cc5)C(C)(C)C)CC4)CC3)nc3c(F)c(-c4cc(O)cc5ccccc45)c(Cl)cc23)CC1 [Compound 56, (2S,4R)-1-[(2S)-2-{2-[4-(3-{1-[(2R)-2-{[6-chloro-8-fluoro-7-(3-hydroxynaphthalen-1-yl)-4-[4-(prop-2-enoyl)piperazin-1-yl]quinazolin-2-yl]oxy}propyl]piperidin-4-yl}propyl)piperazin-1-yl]acetamido}-3,3-dimethylbutanoyl]-4-hydroxy-N-[(1S)-1-[4-(4-methyl-1,3-thiazol-5-yl)phenyl]ethyl]pyrrolidine-2-carboxamide]
> 1000 | – | C=CC(=O)N1CCN(c2nc(O[C@H](C)CN3CCC(OCCOCC(=O)N[C@H](C(=O)N4C[C@H](O)C[C@H]4C(=O)N[C@@H](C)c4ccc(-c5scnc5C)cc4)C(C)(C)C)CC3)nc3c2CCN(c2cccc4ccccc24)C3)C[C@@H]1CC#N [Compound 58, (2S,4R)-1-[(2S)-2-{2-[2-({1-[(2R)-2-({4-[(3S)-3-(cyanomethyl)-4-(prop-2-enoyl)piperazin-1-yl]-7-(naphthalen-1-yl)-5H,6H,7H,8H-pyrido[3,4-d]pyrimidin-2-yl}oxy)propyl]piperidin-4-yl}oxy)ethoxy]acetamido}-3,3-dimethylbutanoyl]-4-hydroxy-N-[(1S)-1-[4-(4-methyl-1,3-thiazol-5-yl)phenyl]ethyl]pyrrolidine-2-carboxamide]
100 to 1000 | < 35 | C=CC(=O)N1CCN(c2nc(O[C@H](C)CN3CCC(OCCOCCOc4cc(-c5scnc5C)ccc4CNC(=O)[C@@H]4C[C@@H](O)CN4C(=O)[C@H](c4cc(C)no4)C(C)C)CC3)nc3c(F)c(-c4cc(O)cc5ccccc45)c(Cl)cc23)CC1 [Compound 71, (2S,4R)-N-[(2-{2-[2-({1-[(2R)-2-{[6-chloro-8-fluoro-7-(3-hydroxynaphthalen-1-yl)-4-[4-(prop-2-enoyl)piperazin-1-yl]quinazolin-2-yl]oxy}propyl]piperidin-4-yl}oxy)ethoxy]ethoxy}-4-(4-methyl-1,3-thiazol-5-yl)phenyl)methyl]-4-hydroxy-1-[(2S)-3-methyl-2-(3-methyl-1,2-oxazol-5-yl)butanoyl]pyrrolidine-2-carboxamide]
